Literature values, collected in patent publication US6262080A, “3-(thio-substitutedamido)-lactams useful as inhibitors of matrix metalloproteinase” (Avantis Pharmaceuticals Inc., priority 1999, dated 2001).

Test system: B16-BL6 murine melanoma
Settings: intraperitoneal administration; lung colonies produced by intravenous injection of B16-BL6 murine melanoma in C57BL/6N mice

## CNC(=O)[C@H](Cc1ccccc1)NC(=O)[C@H](CC(C)C)[C@H](CSc1cccs1)C(=O)NO [batimastat]
  growth and metastatic spread and number of lung colonies: significant inhibition
